In general, IC50 refers to the concentration that gives 50% inhibition.

The target in assay [1] is T1, BRD4 Bromo Domain 2 [BRD4(2)] (Homo sapiens, UniProt O60885).
T1 construct: N-terminally His6-tagged BRD4(2) (amino acids 357-445); made in house; host or cells: E. coli
The experiment in a line: BRD4(2)/acetylated peptide H4 binding assay (TR-FRET). The conditions noted are these: inhibition of interaction between His6-tagged BRD4(2) (amino acids 357-445) and acetylated histone H4 peptide. An excerpt:
Protein-Protein Interaction Assay: BRD4/Acetylated Peptide H4 Binding Assay
2. Assay Description for BRD4 Bromo Domain 2 [BRD4(2)]
To assess the BRD4(2) binding strength of the substances described in this application, the ability thereof to inhibit the interaction between BRD4(2) and acetylated histone H4 in a dose-dependent manner was quantified.
For this purpose, a time-resolved fluorescence resonance energy transfer (TR-FRET) assay was used, which measures the binding between N-terminally His6-tagged BRD4(2) (amino acids 357-445) and a synthetic acetylated histone H4 (Ac-H4) peptide with sequence SGRGK(Ac)GGK(Ac)GLGK(Ac)GGAK(Ac)RHRKVLRDNGSGSK-biotin. The recombinant BRD4(2) protein produced in house according to Filippakopoulos et al., Cell, 2012, 149:214-231 was expressed in E. coli and purified by means of (Ni-NTA) affinity and (Sephadex G-75) size exclusion chromatography. The Ac-H4 peptide can be purchased, for example, from Biosyntan (Berlin, Germany).
In the assay, typically 11 different concentrations of each substance (0.1 nM, 0.33 nM, 1.1 nM, 3.8 nM, 13 nM, 44 nM, 0.15 μM, 0.51 μM, 1.7 μM, 5.9 μM and 20 μM) were analysed as duplicates on the same microtitre plate. For this purpose, 100-fold concentrated solutions in DMSO were prepared by serial dilutions (1:3.4) of a 2 mM stock solution into a clear, 384-well microtitre plate (Greiner Bio-One, Frickenhausen, Germany). From this, 50 nl were transferred into a black test plate (Greiner Bio-One, Frickenhausen, Germany). The test was started by the addition of 2 μl of a 2.5-fold concentrated BRD4(2) solution (final concentration typically 100 nM in the 5 μl of reaction volume) in aqueous assay buffer [50 mM HEPES pH 7.5, 50 mM sodium chloride (NaCl); 50 mM potassium fluoride (KF); 0.25 mM CHAPS and 0.05% serum albumin (BSA)] to the substances in the test plate. This was followed by a 10-minute incubation step at 22° C. for the pre-equilibration of putative complexes between BRD4(2) and the substances.
The mixture was then incubated in the dark at 22° C. for one hour and then at 4° C. for at least 3 hours and for no longer than overnight. The formation of BRD4(2)/Ac-H4 complexes was determined by the measurement of the resonance energy transfer from the streptavidin-Eu chelate to the anti-6His-XL665 antibody present in the reaction. For this purpose, the fluorescence emission was measured at 620 nm and 665 nm after excitation at 330-350 nm in a TR-FRET measuring instrument, for example a Rubystar or Pherastar (both from BMG Lab Technologies, Offenburg, Germany) or a Viewlux (Perkin-Elmer). The ratio of the emissions at 665 nm and at 622 nm was taken as an indicator of the amount of BRD4(2)/Ac-H4 complexes formed.
The data (ratios) obtained were normalized, with 0% inhibition corresponding to the mean from the measurements for a set of controls (typically 32 data points) in which all the reagents were present. In these, in place of test substances, 50 nl of DMSO (100%) were used Inhibition of 100% corresponded to the mean from the measurements for a set of controls (typically 32 data points) in which all the reagents except BRD4(2) were present. The IC50 was determined by regression analysis based on a 4-parameter equation (minimum, maximum, IC50, Hill; Y=max+(min−max)/(1+(X/IC50)Hill)).
For orientation: TR-FRET usually uses a lanthanide donor and a delayed reading to cut background.

A further assay concerns MOLM-13 cells. Description: MOLM-13 cell proliferation assay (alamarBlue). Type of assay: cell-based. The following applies: inhibition of cell proliferation, 96 hours, human AML cell line. Here is the method: (§1) In accordance with the invention, the ability of the substances to inhibit cell proliferation was determined Cell viability was determined by means of the alamarBlue® reagent (Invitrogen) in a Victor X3 Multilabel Reader (Perkin Elmer). The excitation wavelength was 530 nm and the emission wavelength […].
The MOLM-13 cells (DSMZ, ACC 554) were sown at a concentration of 4000 cells/well in 100 μl of growth medium (RPMI1640, 10% FCS) on 96-well microtitre plates.
(§2) After overnight incubation at 37° C., the fluorescence values were determined (CI values). Then the plates were treated with various substance dilutions (1E-5 M, 3E-6 M, 1E-6 M, 3E-7 M, 1E-7 M, 3E-8 M, 1E-8 M) and incubated at 37° C. over 96 hours (MOLM-13, B16F10 cells) or 120 hours (MOLP-8 cells). Subsequently, the fluorescence values were determined (CO values). For the data analysis, the CI values were subtracted from the CO values and the results were compared between cells which had been treated with various dilutions of the substance or only with buffer solution. The IC50 values (substance concentration needed for 50% inhibition of cell proliferation) were calculated therefrom.
MOLM-13 human AML (acute myeloid leukaemia) cell line
In general terms: The colour change of resazurin is a common sign of viable cells or microbes.

A further assay has as its system B16F10 cells. Description: B16F10 cell proliferation assay (alamarBlue). The conditions noted are these: B16-F10; inhibition of cell proliferation, 96 hours, mouse melanoma cell line. In kind it is cell-based. As for the experimental part:
as §1
The B16F10 cells (ATCC, CRL-6475) were sown at a concentration of 300-500 cells/well in 100 μl of growth medium (DMEM with phenol red, 10% FCS) on 96-well microtitre plates.
as §2
B16F10 mouse melanoma cell line

A further assay deals with MOLP-8 cells. The experiment in a line: MOLP-8 cell proliferation assay (alamarBlue). Type of assay: cell-based. The conditions noted are these: inhibition of cell proliferation, 120 hours, human multiple myeloma cell line. Here is the method: as §1
The MOLP-8 cells (DSMZ, ACC 569) were sown at a concentration of 4000 cells/well in 100 μl of growth medium (RPMI1640, 20% FCS) on 96-well microtitre plates.
as §2
MOLP-8 human multiple myeloma cell line

In the case of `C[C@@H]1C(=O)N(C)c2ccc(Nc3ccc(S(=O)(=O)N(C)C)cc3)cc2N1Cc1ccccc1` [Example 14, 4-{[(3R)-4-benzyl-1,3-dimethyl-2-oxo-1,2,3,4-tetrahydroquinoxalin-6-yl]amino}-N,N-dimethylbenzenesulphonamide], the 50% inhibitory concentration (IC50) in assay [1] was 78 nM; with MOLM-13 cells, 233 nM; in the assay with B16F10 cells, 178 nM; in the assay with MOLP-8 cells, 115 nM.

On to `C[C@@H]1C(=O)N(C)c2ccc(Nc3ccc(S(=O)(=O)N4CCN(C)CC4)cc3)cc2N1Cc1ccccc1` [Example 15, (3R)-4-benzyl-1,3-dimethyl-6-({4-[(4-methylpiperazin-1-yl)sulphonyl]phenyl}amino)-3,4-dihydroquinoxalin-2(1H)-one], for which the IC50 in assay [1] was 51 nM; with MOLM-13 cells it was 90 nM; in the assay with B16F10 cells, 224 nM; in the assay on MOLP-8 cells, 109 nM.

For the compound `C[C@@H]1C(=O)N(C)c2ccc(Nc3ccc(C(=O)N4CC5(CCS5(=O)=O)C4)cc3)cc2N1Cc1ccccc1` [Example 16, (3R)-4-benzyl-6-({4-[(1,1-dioxido-1-thia-6-azaspiro[3.3]hept-6-yl)carbonyl]phenyl}amino)-1,3-dimethyl-3,4-dihydroquinoxalin-2(1H)-one], the IC50 in assay [1] came out at 97 nM; in the assay with MOLM-13 cells, 374 nM; in the assay with B16F10 cells it was 251 nM; with MOLP-8 cells, 96 nM.

As for `COc1ccc(CN2c3cc(Nc4ccc(C(=O)NC5CCN(C)CC5)cc4)ccc3N(C)C(=O)[C@H]2C)cc1` [Example 17, 4-{[(3R)-4-(4-methoxybenzyl)-1,3-dimethyl-2-oxo-1,2,3,4-tetrahydroquinoxalin-6-yl]amino}-N-(1-methylpiperidin-4-yl)benzamide], the IC50 in assay [1] was determined as 83 nM; in the assay on MOLM-13 cells it was 315 nM; in the assay on B16F10 cells, 378 nM; in the assay with MOLP-8 cells, 69 nM.

Take `COc1ccc(CN2c3cc(Nc4ccc(C(=O)N5CCOCC5)cc4)ccc3N(C)C(=O)[C@H]2C)cc1` [Example 18, (3R)-4-(4-methoxybenzyl)-1,3-dimethyl-6-{[4-(morpholin-4-ylcarbonyl)phenyl]amino}-3,4-dihydroquinoxalin-2(1H)-one]: the IC50 in assay [1] amounted to 111 nM; with MOLM-13 cells, 257 nM; with B16F10 cells it was 287 nM; in the assay on MOLP-8 cells it was 148 nM.

On to `COc1ccc(CN2c3cc(Nc4ccc(C(=O)NCC5COC5)cc4)ccc3N(C)C(=O)[C@H]2C)cc1` [Example 19, 4-{[(3R)-4-(4-methoxybenzyl)-1,3-dimethyl-2-oxo-1,2,3,4-tetrahydroquinoxalin-6-yl]amino}-N-(oxetan-3-ylmethyl)benzamide], for which the IC50 was 110 nM in assay [1], 335 nM in the assay with MOLM-13 cells, 248 nM with B16F10 cells and 124 nM in the assay with MOLP-8 cells.

On to `COc1ccc(CN2c3cc(Nc4ccc(C(=O)N5CC6(COC6)C5)cc4)ccc3N(C)C(=O)[C@H]2C)cc1` [Example 20, (3R)-4-(4-methoxybenzyl)-1,3-dimethyl-6-{[4-(2-oxa-6-azaspiro[3.3]hept-6-ylcarbonyl)phenyl]amino}-3,4-dihydroquinoxalin-2(1H)-one], for which the IC50 stood at 43 nM in assay [1], 351 nM in the assay on MOLM-13 cells, 256 nM in the assay on B16F10 cells and 120 nM with MOLP-8 cells.

Consider `COc1ccc(CN2c3cc(Nc4ccc(C(=O)NCCN5CCN(C)CC5)cc4)ccc3N(C)C(=O)[C@H]2C)cc1` [Example 21, 4-{[(3R)-4-(4-methoxybenzyl)-1,3-dimethyl-2-oxo-1,2,3,4-tetrahydroquinoxalin-6-yl]amino}-N-[2-(4-methylpiperazin-1-yl)ethyl]benzamide], for which the IC50 in assay [1] came to 54 nM; in the assay on MOLM-13 cells, 275 nM; in the assay on B16F10 cells it was 403 nM; in the assay with MOLP-8 cells, 69 nM.

Regarding `COc1ccc(CN2c3cc(Nc4ccc(C(=O)N5CCN(C(C)C)CC5)cc4)ccc3N(C)C(=O)[C@H]2C)cc1` [Example 22, (3R)-4-(4-methoxybenzyl)-1,3-dimethyl-6-[(4-{[4-(propan-2-yl)piperazin-1-yl]carbonyl}phenyl)amino]-3,4-dihydroquinoxalin-2(1H)-one], the IC50 came to 86 nM in assay [1], 261 nM in the assay on MOLM-13 cells, 522 nM with B16F10 cells and 93 nM with MOLP-8 cells.

With `C[C@@H]1C(=O)N(C)c2ccc(Nc3ccc(C(=O)NC4CCN(C)CC4)cc3)cc2N1C1CCCCCC1` [Example 23, 4-{[(3R)-4-cycloheptyl-1,3-dimethyl-2-oxo-1,2,3,4-tetrahydroquinoxalin-6-yl]amino}-N-(1-methylpiperidin-4-yl)benzamide], the IC50 in assay [1] turned out to be 152 nM; in the assay on MOLM-13 cells, 1260 nM; in the assay with B16F10 cells it was 1960 nM; in the assay on MOLP-8 cells it was 1020 nM.

In the case of `C[C@@H]1C(=O)N(C)c2ccc(Nc3ccc(C(=O)N4CCOCC4)cc3)cc2N1C1CCCCCC1` [Example 24, (3R)-4-cycloheptyl-1,3-dimethyl-6-{[4-(morpholin-4-ylcarbonyl)phenyl]amino}-3,4-dihydroquinoxalin-2(1H)-one], the IC50 is 102 nM in assay [1], 967 nM in the assay with MOLM-13 cells, 732 nM in the assay on B16F10 cells and 662 nM in the assay on MOLP-8 cells.

As to `C[C@@H]1C(=O)N(C)c2ccc(Nc3ccc(C(=O)NC4CCN(C)CC4)cc3)cc2N1C1CCOCC1` [Example 26, 4-{[(3R)-1,3-dimethyl-2-oxo-4-(tetrahydro-2H-pyran-4-yl)-1,2,3,4-tetrahydroquinoxalin-6-yl]amino}-N-(1-methylpiperidin-4-yl)benzamide], the IC50 in assay [1] came out at 391 nM; with MOLM-13 cells, 1580 nM; in the assay with B16F10 cells, 4010 nM; in the assay on MOLP-8 cells, 1030 nM.

Consider `C[C@@H]1C(=O)N(C)c2ccc(Nc3ccc(C(=O)N4CCOCC4)cc3)cc2N1C1CCOCC1` [Example 27, (3R)-1,3-dimethyl-6-{[4-(morpholin-4-ylcarbonyl)phenyl]amino}-4-(tetrahydro-2H-pyran-4-yl)-3,4-dihydroquinoxalin-2(1H)-one], for which the IC50 in assay [1] was 419 nM; in the assay with MOLM-13 cells, 1950 nM; in the assay on B16F10 cells it was 2490 nM; in the assay on MOLP-8 cells, 1130 nM.

Source of the values: patent publication US20150344444A1, “BET-PROTEIN-INHIBITING DIHYDROXYQUINOXALINONES” (BAYER PHARMA AKTIENGESELLSCHAFT, priority 2012, published 2015).
